Source: patent US4132738A, “Preparation of 15-deoxy-16-hydroxyprostaglandins” (Miles Laboratories, Inc., priority 1978, dated 1979)

Tests used:
[1] = system: blood pressure in the hypertensive rat; assay: Effects on systolic blood pressure in the hypertensive rat; type: in vivo; design: key: 0: Not significant at any time interval; 1: Significant at one time interval; 2: Significant at two time intervals; details: 1 mg/kg intraperitoneal; 2, 4, 6 and 9 hours
Procedure: The acute anithypertensive activity of test compounds was determined in rats made hypertensive by the procedure of Grollman (Proc. Soc. Exper Biol. Med., 57: 102 [1944]). Female rats weighing between 60 and 100 g were anesthetized with ether, the right kidney approached through a flank retroperitoneal incision, decapsulated and tied with a figure-of-eight-ligature. The animals were left to recover and two weeks later were again anesthetized and the contralateral kidney removed. Four weeks after the second operation the rats were subjected to indirect blood pressure measurements and those showing systolic pressure values greater than 160 mmHg were selected for drug testing.
Blood pressure was measured in the tail with an inflatable occluding cuff placed at the base of the extremity and a pulse detector located distally. The cuff was inflated to approximately 300 mmHg and was slowly deflated until pulsations appeared, indicating the level of systolic pressure; diastolic pressure was not recorded by this procedure. All measurements were carried out in unanesthetized, unsedated animals maintained in a warm environment during the recording procedure and for at least 6 hours before. In all cases, three pressure readings were obtained in succession and mean values were calculated thereof.
Experiments were carried out in groups of five hypertensive rats in which systolic pressure was determined immediately before and 2, 4, 6 and 9 hours after intraperiotoneal administration of the test compound at a dose of 1 mg/kg. Drugs were diluted from stock solutions with phosphate buffer (Lee et. al., Prostaglandins, 29 [1973]), so as to inject this quantity in a volume of 1 ml/kg. Changes from control blood pressure values were calculated for each interval both in mmHg and in percent, and evaluated for significance by means of Wilcoxon's signed rank test (Wilcoxon, R. and Wilcox, R. A., "Some Rapid Approximate Statistical Procedures," Lederle Laboratories, Pearl River [1964]).

[2] = system: gastric secretion in the rat; assay: Effects on gastric secretion in the rat; type: in vivo; details: for GAS value, carbinol versus methyl ester analogue: comparison in words
Procedure: A procedure based on that described by Lipman, W. (J. Pharm. Pharmacol., 21: 335 [1968]) was used to assess the influence of test compounds on gastric secretion. Rats of one sex weighing 150 to 200 g were randomly divided into groups of six animals each and fasted for 48 hours previous to the experiments, water being available ad libitum. The animals were anesthetized with ether, the abdomen opened through a midline incision, and the pylorus ligated. Test compounds were diluted from stock solution so as to administer a dose of 1.5 mg/kg in a volume equivalent to 1 ml/kg. Subcutaneous injections were applied immediately after surgery and again 2 hours later, so that a total dose of 3.0 mg/kg was administered. Dilutions were made with phosphate buffer (pH 7.38) as recommended by Lee et al. (Prostaglandins, 3: 29 [1973]) in order to insure adequate stability of drugs at the subcutaneous depot. Each compound was tested in one group of rats; an additional control group received only the vehicle.
Four hours after pyllric ligation the animals were killed with ether, the cardias ligated, and the stomachs removed. The volume of gastric secretion was measured and the contents centrifuged at 5000 rpm for 10 minutes. Total acid in the supernatant was titrated against a 0.1 N sodium hydroxide solution and the amount expressed in mEq.
Volume and total acid values of the treated group were compared with those of the controls […]. Antisecretory activity was scored according to the following scale: […]

guinea pig trachea = assay: Effects on the guinea pig trachea in vitro; type: cell-based; details: comparison in words
Procedure: A male guinea pig weighing 200-500 g was killed by a blow on the head. A 20 mm length of the trachea was dissected from the animal, transferred to a petri dish containing Krebs' solution (aerated with 95% O2 and 5% CO2 at 37° C.), and cut longitudinally opposite the tracheal muscle. The tissue was then cut transversely three quarters of the distance across, a second cut in the opposite direction (again three quarters of the distance across the tissue) was made and the procedure was continued for the whole tissue. The ends of the trachea were pulled to form a zig-zig shaped strip. The tracheal strip used in the experiment was approximately 30 mm when extended under 0.25-0.5 g load in the tissue bath. Cotton thread was tied to one end of the tissue, and linen thread to the other. It was attached via the linen thread to a glass hook in a 5 ml isolated tissue bath containing Krebs' solution (37° C., aerated with a mixture of 95% O2 and 5% CO2). The opposite end was attached via cotton to an isotonic Harvard transducer (Model 386 Heart/Smooth Muscle Transducer, Harvard Apparatus). The load on the transducer lever was small, usually 0.3 g, with a range of 0.25-0.5 g, and the magnification high, 80 fold using an appropriate twin-channel pen recorder. A minimum of thirty minutes was allowed before applying a test compound to the tissue. Test compounds were then applied (in volumes of 0.5 ml) at thirty minute intervals, being in contact with the tissue for five minutes followed by an overflow washout time of twenty seconds.
Prostaglandin E1, at a bath concentration of 0.1 mcg/ml, was then tested repeatedly on two such strips, obtained from two different animals, until two responses (the values of which are recorded) differing by no more than 25% occur. A test compound was then added to the same two strips at bath concentrations of 0.01, 0.1, 1.0, and 10.0 mcg/ml and the effects of the compound were recorded. After the test compound had been evaluated at the highest concentration, PGE1 was retested at 0.1 mcg/ml (and the value of the response recorded) to insure that the viability of the strips was retained during the experiment. The mean of the effects of the test compound on the two strips was then calculated for each concentration, and, biased on the resulting values, an activity value was assigned as follows: […]

| Compound | Blood Pressure Hypertensive Rat: activity value [1] | GAS activity ([2]; result in words) | GAS value, carbinol versus methyl ester analogue [2] | Guinea pig trachea value, carbinol versus methyl ester analogue (guinea pig trachea) |
| --- | --- | --- | --- | --- |
| CCCC(C)(C)C(O)C/C=C/[C@H]1[C@H](O)CC(=O)[C@@H]1CCCCCCCO (single isomer, unassigned) [TR 4752, 1, 11α, 16R or S-trihydroxy-17-dimethylprost-13E-en-9-one] | 0 | no GAS activity |  |  |
| CCCC(C)C(O)C/C=C/[C@H]1[C@H](O)CC(=O)[C@@H]1CCCCCCC(=O)OC (stereo partly drawn) [TR 4814, Methyl 11α, 16RS-dihydroxy-17-methyl-9-oxoprost-13E-oate, reference compound] | 1 |  |  |  |
| COC(=O)CCCCCC[C@H]1C(=O)C[C@@H](O)[C@@H]1/C=C/[C@H]1CCCC[C@@H]1O [TR 4767, Methyl 15R, 20-cyclo-11α, 16-trans-dihydro-9-oxoprost-13E-en-1-oate] | 0 |  |  |  |
| CCCCC(O)C/C=C/[C@H]1[C@H](O)CC(=O)[C@@H]1CCCCCCCO (stereo partly drawn) [TR 4706, 1,11α,16RS-trihydroxyprost-13E-en-9-one] | 0 |  | the same | the same |
| COC(=O)CCCCCC[C@H]1C(=O)C[C@@H](O)[C@@H]1/C=C/CC1(O)CC2C=CCC21 (stereo partly drawn) [TR 4800, Methyl 11α, 16RS-dihydroxy-16, 18-methano-17, 20-methano-9-oxoprosta-13E, 19-dien-1-oate] | 0 |  |  |  |
| COC(=O)CCCCCC[C@H]1C(=O)C[C@@H](O)[C@@H]1/C=C/CC1(O)CC2CCCCC21 (stereo partly drawn) [TR 4808, Methyl 11α, 16RS-dihydroxy-17, 20-ethano-16, 18-methano-9-oxoprost-13E-en-1-oate] | 0 |  |  |  |
| COC(=O)CCCCCC[C@H]1C(=O)C[C@@H](O)[C@@H]1/C=C/CC1(O)CCCCC1 [TR 4717, Methyl 11α, 16RS-dihydroxy-16, 20-methano-9-oxoprost-13E-en-1-oate] | 0 |  |  |  |
| O=C1C[C@@H](O)[C@H](/C=C/CC2(O)CC3CCCC32)[C@H]1CCCCCCCO (stereo partly drawn) [TR 4799, 16, 18-Methano-17, 20-methano-1, 11α, 16RS-trihydroxyprost-13E-en-9-one] | 0 |  |  |  |
| CC1CCCC(O)(C/C=C/[C@H]2[C@H](O)CC(=O)[C@@H]2CCCCCCCO)C1 (stereo partly drawn) [TR 4851, 16, 20-Methano-18RS-methyl-1, 11α, 16RS-trihydroxyprost-13E-en-9-one] | 0 |  |  |  |
| CCCC(C)C(O)C/C=C/[C@H]1[C@H](O)CC(=O)[C@@H]1CCCCCCCO (stereo partly drawn) [TR 4749, 1, 11α, 16RS-trihydroxy-17RS-methylprost-13E-en-9-one] | 0 |  | lower | lower |
| O=C1C[C@@H](O)[C@H](/C=C/CC2(O)CCCCC2)[C@H]1CCCCCCCO [TR 4703, 16, 20-Methano-1, 11α, 16-trihydroxyprost-13E-en-9-one] | 0 |  |  |  |
| COC(=O)CCCCCC[C@H]1C(=O)C[C@@H](O)[C@@H]1/C=C/CC1(O)CC2CCC1C2 (stereo partly drawn) [TR 4883, Methyl 11α,16RS-dihydroxy-16,20-methano-17,20-methano-9-oxoprost-13E-en-1-oate] | 1 |  |  |  |
| CCCCC(C)(O)C/C=C/[C@H]1[C@H](O)CC(=O)[C@@H]1CCCCCCCO (stereo partly drawn) [TR 4698, 16-methyl-1,11α,16RS-trihydroxyprost-13E-en-9-one] | 1 |  | the same | the same |
